Paper PMC6273342, “Cytotoxic Alkaloids from the Stem of Xylopia laevigata” (Molecules, 2016)
Like-named read-outs stand apart in the source and are kept apart here.

Assays:
[1] = test system: HL-60 (human promyelocytic leukemia); assay: Alamar Blue cytotoxicity assay, HL-60; assay type: cell-based; settings: for IC50: Homo sapiens, HL-60, Alamar Blue, 72 h incubation, read-out: IC50 HL60
Protocol: (§3) B16-F10, HepG2, K562 and HL-60 tumor cell lines were kindly donated by Hospital A.C. […] Cells were maintained in RPMI 1640 medium (Gibco-BRL, Gaithersburg, MD, USA) with 10% fetal bovine serum (Cultilab, Campinas, Brazil), 2 mM L-glutamine (Vetec Química Fina, Duque de Caxias, Brazil) and 50 μg/mL gentamycin (Novafarma, Anápolis, Brazil). Adherent cells were collected by treatment with 0.25% trypsin-EDTA solution (Gibco-BRL). All cell lines were cultured in flasks at 37 °C in 5% CO2 and sub-cultured every 3–4 days to maintain exponential growth. All cell lines were tested for mycoplasma using a Mycoplasma Stain Kit (Sigma-Aldrich, St. Louis, MO, USA) to confirm that the cells were free from contamination.
(§4) Cell viability was quantified using the Alamar Blue assay, according to Ahmed et al. [23]. Cells were placed in 96-well plates for all experiments (0.7 × 10^5 cells/mL for adherent cells or 0.3 × 10^6 cells/mL for suspended cells in 100 μL of medium). After 24 h, the alkaloids (in a range of eight different concentrations varying from 0.19 to 25 μg/mL) were dissolved in dimethyl sulfoxide (DMSO, Sigma-Aldrich Co.), and the solution was added to each well and incubated for 72 h. […] Negative controls received the vehicle that was used for diluting the alkaloids (0.5% DMSO). Four (for cell lines) or 24 h (for PBMCs) before the end of incubation, 20 μL of a stock solution (0.312 mg/mL) of the Alamar Blue (resazurin, Sigma-Aldrich Co.) was added to each well. The absorbance at 570 nm and 600 nm was measured using a SpectraMax 190 Microplate Reader (Molecular Devices, Sunnyvale, CA, USA), and the drug effect was quantified as the percentage of control absorbance.

[2] = test system: K562 (human chronic myelocytic leukemia); assay: Alamar Blue cytotoxicity assay, K562; assay type: cell-based; settings: 72 h incubation
From the text: (§1) Camargo, São Paulo, Brazil.

[3] = test system: HepG2 (human hepatocellular carcinoma); assay: Alamar Blue cytotoxicity assay, HepG2; assay type: cell-based; settings: 72 h incubation
From the text: as §1

[4] = test system: tumor cell lines B16-F10, HepG2, K562 and HL-60; assay: Alamar Blue cytotoxicity assay, summary over the tumor cell lines tested; settings: 72 h, read-out: IC50 in at least one of the tumor cell lines tested
Protocol: as §3, §4

[5] = test system: peripheral blood mononuclear cells (PBMCs); assay: Alamar Blue cytotoxicity assay, non-tumor PBMCs; assay type: cell-based; settings: Homo sapiens, PBMC, 72 h incubation, ConA-stimulated PBMCs
Protocol: Heparinized blood was collected from 20- to 35-year-old, healthy non-smokers who had not taken any drugs for at least 15 days prior to sampling, and the peripheral blood mononuclear cells (PBMCs) were isolated using a Ficoll density gradient in a Ficoll-Paque Plus (GE Healthcare Bio-Sciences AB, Uppsala, Sweden). PBMCs were washed and resuspended at a concentration of 0.3 × 10^6 cells/mL in RPMI 1640 medium with 20% fetal bovine serum, 2 mM L-glutamine and 50 μg/mL gentamycin at 37 °C with 5% CO2. Concanavalin A (ConA, Sigma-Aldrich Co.) was used as a mitogen to trigger cell division in T-lymphocytes. ConA (10 μg/mL) was added at the beginning of culture, and the cells were treated with the test compounds after 24 h. Cell viability was examined using a trypan blue exclusion assay for all experiments. Over 90% of the cells were viable at the beginning of the culture. The Research Ethics Committee of the Oswaldo Cruz Foundation (Salvador, Bahia, Brazil) approved the experimental protocol (#031019/2013). All participants signed a written informed consent to participate in the study.

B16-F10 (mouse melanoma) = assay: Alamar Blue cytotoxicity assay, B16-F10; assay type: cell-based; settings: 72 h incubation
From the text: as §1

[6] = Alamar Blue cytotoxicity assay, summary over the tumor cell lines tested; settings: mouse (B16-F10); human (HepG2, K562, HL-60)
Protocol: as §3, §4

HepG2 cells [7] = assay: Internucleosomal DNA fragmentation and cell cycle distribution (flow cytometry, propidium iodide), HepG2; assay type: cell-based, human; settings: HepG2, 24 h, 1 µg/mL
Protocol: (§2) The following set of experiments was performed to investigate the mechanisms involved in the cytotoxic action of the alkaloids lanuginosine and (+)-xylopine. In all experiments, 2 mL of a HepG2 cell solution (0.7 × 10^5 cells/mL) was placed in 24-well plates and incubated overnight to allow the cells to adhere to the plate surface. The cells were then treated for 24 h with the alkaloids lanuginosine (10 and 20 μg/mL) and (+)-xylopine (5 and 10 μg/mL). The negative control was treated with the vehicle (0.2% DMSO) used for diluting the alkaloids. […] Cell viability was assessed for all experiments using a Trypan Blue exclusion assay.
Cells were harvested in a lysis solution containing 0.1% triton X-100 (Sigma Chemical Co., St. Louis, MO, USA), 2 µg/mL propidium iodide (Sigma Chemical Co.), 0.1% sodium citrate and 100 µg/mL RNAse (Sigma Chemical Co.). Cell fluorescence was determined by flow cytometry on a BD LSRFortessa cytometer using BD FACSDiva Software (BD Biosciences) and Flowjo Software 10. Ten thousand events were evaluated per experiment and cellular debris was omitted from the analysis.

HepG2 cells [8] = assay: Annexin assay (phosphatidylserine externalization, flow cytometry), HepG2; assay type: cell-based, human; settings: HepG2, 24 h
Protocol: as §2
Phosphatidylserine externalization was analyzed by flow cytometry. A FITC annexin V apoptosis detection kit (BD Biosciences, San Jose, CA, USA) was used to determine cell viability (viable, early apoptotic, late apoptotic and necrotic cells). Cells were washed twice with saline and then resuspended in 100 μL of binding buffer with 5 μL of propidium iodide and 5 μL of FITC annexin V. The cells were gently mixed on a vortexer and incubated for 15 min at room temperature (20–25 °C) in the dark. Afterwards, 400 μL of binding buffer was added to each tube and the cells were analyzed by flow cytometry on a BD LSRFortessa cytometer using BD FACSDiva Software (BD Biosciences) and Flowjo Software 10 (Flowjo LCC, Ashland, OR, USA). Ten thousand events were evaluated per experiment and cellular debris was omitted from the analysis.

HepG2 cells [9] = assay: Acridine Orange/ethidium bromide staining, fluorescence microscopy, HepG2; assay type: cell-based, human; settings: HepG2, 24 h, p < 0.05
Protocol: as §2
Cells were pelleted and resuspended in saline (25 μL). Then, 1 μL of aqueous solution of AO/EB (100 μg/mL, Sigma-Aldrich Co.) was added, and the cell viability changes were observed under a fluorescence microscope (Olympus BX41). In this assay, AO permeates all cells and makes the nuclei appear green. EB is only taken up by cells when the cytoplasmic membrane integrity is lost and stains the nucleus red. EB also dominates over AO. Thus, live cells have a normal green nucleus; early apoptotic cells have a bright green nucleus with condensed or fragmented chromatin; late apoptotic cells display condensed and fragmented orange chromatin; cells that have died from direct necrosis have a structurally normal orange nucleus. Three hundred cells were counted per sample and classified as viable, apoptotic or necrotic.

HepG2 cells [10] = assay: Morphological analysis with May-Grünwald-Giemsa staining, HepG2; assay type: cell-based, human; settings: HepG2, 24 h; lanuginosine 10 and 20 μg/mL, (+)-xylopine 5 and 10 μg/mL
Protocol: as §2
To evaluate alterations in morphology, cells were cultured under a coverslip, fixed with methanol for 30 s and stained with May-Grünwald-Giemsa stain. Morphological changes were examined by light microscopy (Olympus BX41, Tokyo, Japan) using Image-Pro software (Media Cybernetics, Rockville, MD, USA).

HepG2 cells [11] = assay: Trypan Blue dye exclusion, HepG2; assay type: cell-based, human; settings: HepG2, 24 h, lanuginosine 10 and 20 μg/mL, (+)-xylopine 5 and 10 μg/mL
Protocol: as §2

Row | Compound | IC50 [1] [µg/mL] | IC50 ([1]; value in brackets) [µM] | IC50 [2] [µg/mL] | IC50 ([2]; value in brackets) [µM] | IC50 [3] [µg/mL] | IC50 ([3]; value in brackets) [µM] | IC50 [4] [µg/mL] | IC50 [5] [µg/mL] | IC50 (B16-F10 (mouse melanoma)) [µg/mL] | IC50 (B16-F10 (mouse melanoma); value in brackets) [µM] | IC50 at 72 h [6] [µg/mL] | further results
1 | COc1cc2c(cc1O)CCN1Cc3c(ccc(O)c3OC)CC21 (single isomer, unassigned; (+)) [(+)-Discretamine, (+)-discretamine] | 10.1 | 30.8 | 10.6 | 32.4 | 14 | 42.8 | < 20 | > 25 | 18.8 | 57.3 |  | 
2 | COc1cc2c(cc1O)CC1c3c(cc(OC)c(OC)c3-2)CCN1C (single isomer, unassigned; (+)) [(+)-N-Methyllaurotetanine, (+)-N-methyllaurotetanine] | > 25 |  | > 25 |  | > 25 |  |  | > 25 | > 25 |  | > 25 | 
3 | COc1cc2c(cc1OC)-c1c(OC)c(OC)c(OC)c3c1C(C2)NCC3 (single isomer, unassigned; (+)) [(+)-Norpurpureine, (+)-norpurpureine] | 10.1 | 27.2 | 16.7 | 44.9 | > 25 |  | < 20 | 17.9 | 21.1 | 56.6 |  | IC50 ([5]; value in brackets): 48.2 µM
4 | COc1ccc(CC2c3cc(O)c(OC)cc3CCN2C)cc1O (single isomer, unassigned; (+)) [(+)-Reticuline, (+)-reticuline] | 23.8 | 72.1 | > 25 |  | 15.3 | 46.5 | < 20 | > 25 | > 25 |  |  | 
5 | COc1cc2c(cc1O)CC1c3cc(OC)c(OC)cc3CCN1C2 (single isomer, unassigned; (-)) [(−)-Corytenchine, (−)-corytenchine] | > 25 |  | > 25 |  | > 25 |  |  | > 25 | > 25 |  | > 25 | 
6 | c1ccc2c(c1)C[C@H]1NCCc3cc4c(c-2c31)OCO4 [(+)-Anonaine, (+)-anonaine] | 10.1 | 37.9 | 10.6 | 39.9 | 14 | 52.8 | < 20 | > 25 | 18.8 | 70.7 |  | 
7 | COc1cc(O)c2c(c1)C[C@@H]1NCCc3cc4c(c-2c31)OCO4 [(+)-Calycinine, (+)-calycinine] | 18.6 | 59.6 | > 25 |  | > 25 |  | < 20 | > 25 | 22.2 | 71 |  | 
8 | COc1cc2c(cc1O)CCN1Cc3cc(OC)c(OC)cc3C[C@@H]21 [(+)-Discretine, (+)-discretine] | 13 | 37.9 | 14.8 | 43.4 | 7.89 | 23.1 | < 20 | > 25 | 16.1 | 47.2 |  | 
9 | COC1=C[C@]23CCN(C)[C@H](Cc4cc(OC)c(O)cc42)C3=CC1=O [(+)-Flavinantine, (+)-flavinantine] | > 25 |  | > 25 |  | > 25 |  |  | > 25 | > 25 |  | > 25 | 
10 | COc1cc2c(cc1OC)-c1c(OC)c(OC)cc3c1[C@H](C2)N(C)CC3 [(+)-Glaucine, (+)-glaucine] | > 25 |  | > 25 |  | > 25 |  |  | > 25 | > 25 |  | > 25 | 
11 | COc1cc2c(cc1O)C[C@@H]1NCCc3cc(OC)c(OC)c-2c31 [(+)-Laurotetanine, (+)-laurotetanine] | > 25 |  | > 25 |  | > 25 |  |  | > 25 | > 25 |  | > 25 | 
12 | CN1CCc2cc3c(c4c2[C@H]1Cc1ccccc1-4)OCO3 [(−)-Roemerine, (−)-roemerine] | > 25 |  | > 25 |  | > 25 |  |  | > 25 | > 25 |  | > 25 | 
13 | COc1cc2c(cc1OC)CN1CCc3cc(OC)c(OC)cc3[C@@H]1C2 [(−)-Xylopinine, (−)-xylopinine] | > 25 |  | > 25 |  | > 25 |  |  | > 25 | > 25 |  | > 25 | 
14 | COc1cccc2c1C(=O)c1c(O)c3c(c(O)c1C2=O)C[C@@](O)(C(=O)CO)C[C@@H]3O[C@H]1C[C@H](N)[C@H](O)[C@H](C)O1 [Doxorubicin, doxorubicin, reference compound] | 0.09 |  | 0.15 | 0.28 | 0.08 | 0.15 |  | 2.47 | 0.08 | 0.15 |  | IC50 ([5]; value in brackets): 4.54 µM; Cell Cycle Phases (%) S (HepG2 cells [7]; NC 16.11 ± 1.89): 12.00 ± 1.43 %; Cell Cycle Phases (%) G2/M (HepG2 cells [7]; NC 19.93 ± 6.12): 61.94 ± 5.52 %; apoptotic characteristics in the cells (HepG2 cells [8]; doxorubicin 1 μg/mL, positive control): induced apoptotic characteristics
15 | COc1ccc2c(c1)C(=O)c1nccc3cc4c(c-2c13)OCO4 [Lanuginosine, lanuginosine] | 7.81 | 25.5 | 6.61 | 21.6 | 3.89 | 12.7 | < 4 | 24.5 | 8.46 | 27.6 |  | selectivity index (SI) ([1]; SI = IC50[PBMC]/IC50[HL-60]): 3.1; percentage of necrotic cells (AO/EB) (HepG2 cells [9]; at the higher concentration): significantly increased the percentage of necrotic cells; number of apoptotic cells (AO/EB) (HepG2 cells [9]; lanuginosine 10 and 20 μg/mL, (+)-xylopine 5 and 10 μg/mL): increased number of apoptotic cells; IC50 ([5]; value in brackets): 80.1 µM; phosphatidylserine exposure (HepG2 cells [8]; p < 0.05, without affecting the cell membrane integrity): significant increase in phosphatidylserine exposure; cell morphology (HepG2 cells [10]): morphology consistent with apoptosis, including chromatin condensation and fragmentation of the nuclei; number of non-viable cells (HepG2 cells [11]): without increasing the number of non-viable cells; number of viable cells (HepG2 cells [11]; p < 0.05): reduce the number of viable cells
16 | COc1cc2c(cc1OC)-c1c(OC)c(OC)cc3ccnc(c13)C2=O [Oxoglaucine, oxoglaucine] | 5.9 | 16.8 | 12.5 | 35.5 | > 25 |  | < 20 | 10.2 | 19.1 | 54.4 |  | IC50 ([5]; value in brackets): 29.1 µM
